Data reported in patent publication US20160257651A1, “NOVEL COMPOUND WITH ANTIBACTERIAL ACTIVITY” (priority 2013, published 2016).
≈ marks a conversion by molar mass, not a printed value. Where “and” joins values, the source holds several entries; their conditions need not be identical. Equal entries are not always repeated.

Experiments:
GyrA (wt) + GyrB (wt) = molecular target: T1, GyrA (wt) + GyrB (wt) (Staphylococcus aureus, UniProt P20831); assay: DNA cleavage assay using DNA gyrase; type: biochemical; settings: for Ratio of cleaved DNA (%) / Ratio of substrate plasmid DNA (%): GyrA (wt) + GyrB (wt)
T1 construct: made in house; host or cells: E. coli BL21(DE3)
Procedure: (§1) To the culture medium of the resulting transformed Escherichia coli 1 mM isopropyl-8-thiogalactopyranoside (produced by Wako Pure Chemical Industries) was added to induce expression of maltose-binding GyrA(wt), maltose-binding GyrB(wt), or maltose-binding mutant GyrA(S84L), and the bacterium was cultured overnight at 25° C.
(§2) Then, each disrupted cell suspension was added to a column filled with an amylose resin covalently bound with maltose (produced by Novagen). A buffer (20 mM Tris-HCl (pH 8.0), 200 mM sodium chloride, 1 mM EDTA) containing 10 mM maltose was added to the column to elute the maltose-binding GyrA(wt), maltose-binding GyrB(wt), and maltose-binding mutant GyrA(S84L).
To each eluate, 4 units/1 mL of the eluate of protease (Factor Xa, produced by Amersham) was added, and the mixture was left standing at 25° C. for 3 hours and 30 minutes to cleave the maltose-binding proteins, GyrA(wt), GyrB(wt), and mutant GyrA(S84L), from the maltose-binding GyrA(wt), maltose-binding GyrB(wt), and maltose-binding mutant GyrA(S84L).
Then, GyrA(wt), GyrB(wt), and mutant GyrA(S84L) were concentrated by using an ultrafiltration unit (YM-50 Filter Unit, produced by Millipore).
The concentrated GyrA(wt), GyrB(wt), and mutant GyrA(S84L) were each suspended in a buffer (35 mM Tris-HCl (pH 7.5), 24 mM potassium chloride, 6 mM magnesium chloride, 1.8 mM spermidine, 0.36 mg/mL bovine serum albumin, 5 mM DTT, 50 volume % glycerol) at a concentration of 1 μg/μL for GyrA(wt), 2 μg/μL for GyrB(wt), or 1 μg/μL for mutant GyrA(S84L).
Levofloxacin was added at a final concentration of […] as control for an index of the enzymatic activity.
The reaction solution was left standing at 25° C. for 30 minutes to allow the reaction. Subsequently, a 6 mass % solution of sodium laurylsulfate (2 μL) and a 5 mg/mL solution of Proteinase K (2 μL, produced by Wako Pure Chemical Industries) were added to the reaction solution, and the mixture was left standing at 37° C. for 30 minutes to inactivate GyrA(wt) and GyrB(wt) bound to DNA.
Then, the whole volume of the reaction solution treated with Proteinase K was subjected to electrophoresis on 1 mass % agarose gel to visualize the resultants of the reaction.
(§3) Then, the total value of the intensities of the bands of “S”, “L”, and “N” was calculated for each concentration, and the result was used as “total DNA amount” (equation 1 mentioned below). Further, the total value of the intensities of the bands of “L” and “N” was also calculated, and the result was used as “amount of cleaved DNA” (equation 2 mentioned below). Then, the ratio (%) of the amount of the substrate plasmid DNA to the total DNA amount was calculated in accordance with the following equation 3, and the ratio (%) of the amount of the cleaved DNA to the total DNA amount was calculated in accordance with the following equation 4.
The DNA cleavage assay is a method for evaluating an inhibitory action of an agent for DNA gyrase by detecting whether or not DNAs cleaved by DNA gyrase are recombined.

GyrA (S84L) + GyrB (wt) = molecular target: T2, GyrA (S84L) + GyrB (wt) (Staphylococcus aureus, UniProt P20831, S84L); assay: DNA cleavage assay using DNA gyrase; type: biochemical
T2 construct: made in house; host or cells: E. coli BL21(DE3)
Procedure: as §1
as §2, with “GyrA(S84L). […]” for “GyrA(S84L).”
as §3

[1] = system: E. coli strain 1709 plus PABN; assay: Antibacterial activity against Escherichia coli in combination with efflux pump inhibitor PAβN; settings: E coli plus PABN 40 mg/L, strain 1709, Quinolone Sus
Description: (§4) The numerical values in the tables indicate MIC (mg/L), Res means resistant bacterium, and Sus means susceptible bacterium.
(§5) Antibacterial activities against Escherichia coli of the compounds shown Table 19 were examined by the following method.
(§6) After completion of the culture, the cells were suspended in fresh TBS to prepare a cell suspension showing an absorbance of 0.3 at 578 nm.

E. coli strain 1709 = assay: Antibacterial activity against Escherichia coli
Description: as §4, §5, §6

E. coli strain 1708 = assay: Antibacterial activity against Escherichia coli
Description: as §4, §5, §6

[2] = system: E. coli strain 1708 plus PABN; assay: Antibacterial activity against Escherichia coli in combination with efflux pump inhibitor PAβN; settings: E coli plus PABN 40 mg/L, strain 1708, Quinolone Res
Description: as §4, §5, §6

O=c1cc(CO)c2cc(F)c(-c3ccc(O)cc3)cc2n1C1CC1 [J-131CP, 1-cyclopropyl-6-fluoro-4-(hydroxymethyl)-7-(4-hydroxyphenyl)-1,2-dihydroquinolin-2-one]
Ratio of cleaved DNA (%) (GyrA (wt) + GyrB (wt); concentration 0.125 μg/mL): 12% | Ratio of substrate plasmid DNA (%) (GyrA (wt) + GyrB (wt); concentration 0.125 μg/mL): 88% | Ratio of cleaved DNA (%) (GyrA (wt) + GyrB (wt); concentration 0.25 μg/mL): 19% | Ratio of substrate plasmid DNA (%) (GyrA (wt) + GyrB (wt); concentration 0.25 μg/mL): 81% | Ratio of cleaved DNA (%) (GyrA (wt) + GyrB (wt); concentration 0.5 μg/mL): 23% | Ratio of substrate plasmid DNA (%) (GyrA (wt) + GyrB (wt); concentration 0.5 μg/mL): 77% | Ratio of cleaved DNA (%) (GyrA (wt) + GyrB (wt); concentration 1 μg/mL): 47% | Ratio of substrate plasmid DNA (%) (GyrA (wt) + GyrB (wt); concentration 1 μg/mL): 53% | Ratio of cleaved DNA (%) (GyrA (wt) + GyrB (wt); concentration 2 μg/mL): 77% | Ratio of substrate plasmid DNA (%) (GyrA (wt) + GyrB (wt); concentration 2 μg/mL): 23% | Ratio of cleaved DNA (%) (GyrA (wt) + GyrB (wt); concentration 4 μg/mL): 81% | Ratio of substrate plasmid DNA (%) (GyrA (wt) + GyrB (wt); concentration 4 μg/mL): 19% | IC50 (GyrA (wt) + GyrB (wt); IC50, GyrA(wt) and GyrB(wt)): 6.15 µM and 6.2 µM | IC50 (GyrA (S84L) + GyrB (wt); IC50, GyrA (S84L) + GyrB (wt), calculated from the ratio of cleaved DNA): 3.07 µM | IC50 (GyrA (S84L) + GyrB (wt); IC50, GyrA(S84L) and GyrB(wt)): 3.1 µM | MIC [1]: ≦0.06 mg/L | MIC (E. coli strain 1709): 8 µg/mL (≈ 24.6 µM) | MIC (E. coli strain 1708): 128 µg/mL (≈ 393 µM) | MIC [2]: 0.25 µg/mL

C[C@H]1COc2c(N3CCN(C)CC3)c(F)cc3c(=O)c(C(=O)O)cn1c23 [LVX, levofloxacin]
Ratio of cleaved DNA (%) (GyrA (wt) + GyrB (wt); concentration 16 μg/mL): 78% | Ratio of substrate plasmid DNA (%) (GyrA (wt) + GyrB (wt); concentration 16 μg/mL): 22%
